Assay results: patent US11420962B2, “Indene derivatives useful in treating pain and inflammation” (TARO PHARMACEUTICALS INC., priority 2018, dated 2022)

Assays:
Assay type in all cases: in vivo
Mice (male, C57Bl/6) = assay: Bleomycin lung fibrosis
Excerpt: Mice (male, C57BL/6) were randomized into treatment groups and fibrosis was induced by intratracheal administration of bleomycin. Treatment with representative compounds of the invention (i.e., test compounds) or reference standard (pirfenidone) was initiated on Day −1 and administered daily unto Day 7 or Day 21. For groups undergoing bronchoalveolar lavage (BAL), the trachea was cannulated and infused with ice cold Hank's Balanced Salt Solution (HBSS, pH 7.2). The collected lavage fluid was analyzed for cell numbers (total and differential counts) and levels of soluble TGFβ and collagen. For other groups, the lungs were either snap-frozen or formalin-fixed for further analyses.

[1] = tested on: Rats (male, Sprague-Dawley); assay: TNBS colitis assay in rats; details: 30 mg/kg dose, PO, QD for 7 days
Protocol: TNBS Colitis Assay of Representative Compounds in Rats Rats (male, Sprague-Dawley) were anaesthetized and a solution of TNBS (48 mg/kg) in ethanol, was instilled intra-rectally to induce colitis, 1 h after oral dosing of representative compounds of the invention (i.e., test compounds). Test compounds were dosed PO, QD for 7 days, using prednisolone as a reference standard. […] On Day 7, rats were euthanized and the colon was evaluated for length, weight, wall thickness, ulcer number and length and for the presence of adhesions and strictures. A colonic score was calculated based on the severity of the colonic parameters.

[2] = tested on: Rats (male, Sprague-Dawley); assay: Rat carrageenan-induced hyperalgesia and paw edema; details: 30 mg/kg, administered at the time of, or 1 h after challenge
Protocol: Representative compounds of the invention (i.e., test compounds) were administered PO, QD for 3 days prior to carrageenan injection, once at 1 h prior to carrageen, or at 5 min or 1 h post-challenge to rats (male, Sprague-Dawley). Rats received either an intraplantar injection of saline (sham) or carrageen (0.1 mL of a 2% solution [w/v]) in the right hind paw. Mechanical hyperalgesia (using an analgesymeter) and paw volume (using a digital plethysmometer) were measured at baseline (0 hr), 2, 4 and 6 h post carrageenan injection for all the animals. Celecoxib, given 1 h prior to carrageen challenge, was used as a reference standard.

C=C1CC[C@H]2[C@H](CN)[C@@H]([C@@]3(C)Cc4cn[nH]c4C[C@@H]3CO)CC[C@]12C [Ia-1, ((5R,6S)-5-((3aS,4R,5S,7aS)-4-(aminomethyl)-7a-methyl-1-methyleneoctahydro-1H-inden-5-yl)-5-methyl-4,5,6,7-tetrahydro-1H-indazol-6-yl)methanol]
reduction in BAL macrophages as compared to the vehicle (Mice (male, C57Bl/6); Day 7, 3.0 mg/kg dose): 41% | reduction in BAL macrophages as compared to the vehicle (Mice (male, C57Bl/6); Day 7, 30 mg/kg dose): 35% | reduction in fibrosis (Mice (male, C57Bl/6); Day 14, 30 mg/kg dose (first mention)): 31% | reduction in fibrosis (Mice (male, C57Bl/6); Day 14, 30 mg/kg dose (second mention)): 34% | inhibition of the colonic score [1]: 36% | average increase in the paw withdrawal threshold as compared to the vehicle [2]: 41%
